ChEMBL document CHEMBL1201862, “PubChem BioAssay data set” (2004)
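Method: 48-hour compound exposure of cells in 96-well plates, five concentrations, linear interpolation of endpoints. GI50 marks 50% less growth.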 Calls of active or inactive are those of the source. Rule as the data show it: active = GI50 up to about 1.1 µM and inactive = higher.

Tests used:
Experiment in all cases: NCI-60 cell line screen, 48 h
MDA-MB-435 = system: MDA-MB-435
SF-268 = system: SF-268
OVCAR-3 = system: OVCAR-3
EKVX = system: EKVX
NCI/ADR-RES = system: NCI/ADR-RES
SF-539 = system: SF-539
SN12C = system: SN12C
OVCAR-4 = system: OVCAR-4
CCRF-CEM = system: CCRF-CEM
SK-OV-3 = system: SK-OV-3
SNB-19 = system: SNB-19
CAKI-1 = system: CAKI-1
SK-MEL-5 = system: SK-MEL-5
A549 = system: A549
COLO 205 = system: COLO 205
T47D = system: T47D
UACC-62 = system: UACC-62
UACC-257 = system: UACC-257
HCT-15 = system: HCT-15

Structure (SMILES) | GI50 (MDA-MB-435) | GI50 (SF-268) | GI50 (OVCAR-3) | GI50 (EKVX) | GI50 (NCI/ADR-RES) | GI50 (SF-539) | GI50 (SN12C) | GI50 (OVCAR-4) | GI50 (CCRF-CEM) | GI50 (SK-OV-3) | GI50 (SNB-19) | GI50 (CAKI-1) | GI50 (SK-MEL-5) | GI50 (A549) | GI50 (COLO 205) | GI50 (T47D) | GI50 (UACC-62) | GI50 (UACC-257) | GI50 (HCT-15)
NCC1CCN(c2nc3ccccc3c3c2CCCC3)CC1 | 2.41 µM (inactive) | 2.78 µM (inactive) | 9.75 µM (inactive) | 11.8 µM (inactive) | 12.9 µM (inactive) | 4.65 µM (inactive) | 9.55 µM (inactive) | 10.5 µM (inactive) | 2.87 µM (inactive) | 14.7 µM (inactive) | 10.4 µM (inactive) | 8.61 µM (inactive) | 2.96 µM (inactive) | 11.2 µM (inactive) | 1.61 µM (inactive) | 2.28 µM (inactive) | 2.29 µM (inactive) | 2.68 µM (inactive) | 4.16 µM
CC(C)N1CCCOC(c2ccc([N+](=O)[O-])cc2)O1 (stereo not drawn) | > 100 µM (inactive) | > 100 µM (inactive) | > 100 µM (inactive) | > 100 µM (inactive) | > 100 µM (inactive) | > 100 µM (inactive) | > 100 µM (inactive) | > 100 µM (inactive) | > 100 µM (inactive) | > 100 µM (inactive) | > 10 µM (inactive) | > 100 µM (inactive) | 58.6 µM (inactive) | > 100 µM (inactive) | > 100 µM (inactive) | > 100 µM (inactive) | > 100 µM (inactive) | > 100 µM (inactive) | > 100 µM
CC(=O)[C@@]1(O)CC[C@H]2[C@@H]3C[C@H](C)C4=CC(=O)CC[C@]4(C)[C@H]3[C@@H](O)C[C@@]21C | > 100 µM (inactive) | > 100 µM (inactive) | > 100 µM (inactive) | 68.7 µM (inactive) | > 100 µM (inactive) | > 100 µM (inactive) | > 100 µM (inactive) | > 100 µM (inactive) | 14.1 µM (inactive) | > 100 µM (inactive) | > 100 µM (inactive) | > 100 µM (inactive) | > 100 µM (inactive) | 60.1 µM (inactive) | > 100 µM (inactive) | 94.2 µM (inactive) | > 100 µM (inactive) | > 100 µM (inactive) | > 100 µM
CC(=O)N1C(=O)/C(=C\C(=O)c2ccc([N+](=O)[O-])cc2)c2ccccc21 | 25.6 µM (inactive) | 22.6 µM (inactive) | 16.7 µM (inactive) | 19.6 µM (inactive) | 44.4 µM (inactive) | 14.4 µM (inactive) | 16.8 µM (inactive) | 14.4 µM (inactive) | 3.94 µM (inactive) | > 100 µM (inactive) | 43.2 µM (inactive) | 22.5 µM (inactive) | 35 µM (inactive) | > 100 µM (inactive) | 18.8 µM (inactive) | 20.5 µM (inactive) | 18.4 µM (inactive) | 19 µM (inactive) | 15 µM
COC(=O)Cc1c2n(c3ccccc13)C(=O)N1c3ccccc3C(CC(=O)OC)C21 (stereo not drawn) | > 100 µM (inactive) | 39.5 µM (inactive) | 55.7 µM (inactive) | 45.3 µM (inactive) | 53.1 µM (inactive) | 16.1 µM (inactive) | > 100 µM (inactive) | 10.7 µM (inactive) | > 100 µM (inactive) | 21.8 µM (inactive) | 18.1 µM (inactive) | 21.1 µM (inactive) | 56.2 µM (inactive) | 34.2 µM (inactive) | 87.3 µM (inactive) | 76 µM (inactive) | 23.5 µM (inactive) | > 100 µM (inactive) | 69 µM
C1CSC(Sc2nc(SC3=NCCS3)nc(SC3=NCCS3)n2)=N1 | > 100 µM (inactive) | > 100 µM (inactive) | > 100 µM (inactive) | > 100 µM (inactive) | > 100 µM (inactive) | > 100 µM (inactive) | > 100 µM (inactive) | > 100 µM (inactive) | > 100 µM (inactive) | > 100 µM (inactive) | > 100 µM (inactive) | > 100 µM (inactive) | > 100 µM (inactive) | > 100 µM (inactive) | > 100 µM (inactive) | > 100 µM (inactive) | > 100 µM (inactive) | > 100 µM (inactive) | > 100 µM
O=C(Nc1nc2ccccc2s1)c1cc([N+](=O)[O-])ccc1Cl | 3.13 µM (inactive) | 4.45 µM (inactive) | 16.7 µM (inactive) | 10.1 µM (inactive) | 6.89 µM (inactive) | 4.73 µM (inactive) | 9.59 µM (inactive) | 8.39 µM (inactive) | 0.0107 µM (active) | 16 µM (inactive) | 28.4 µM (inactive) | 37.6 µM (inactive) | 7.6 µM (inactive) | 6.17 µM (inactive) | 19.6 µM (inactive) | 13.9 µM (inactive) | 7.5 µM (inactive) | 42.2 µM (inactive) | 4.63 µM
